Measured values: patent publication US20240150340A1, “CDK Inhibitors And Their Use As Pharmaceuticals” (Prelude Therapeutics Incorporated, priority 2022, published 2024)

Columns and labels:
CDK2/Cyclin E2 = target: T1, CDK2/Cyclin E2 (Homo sapiens, UniProt P24941); assay: CDK2/CyclinE2 Enzymatic Activity Assay (TR-FRET); type: biochemical; conditions: ATP 1 mM final, read-out: CDK2_E1 IC50
T1 construct: Recombinant protein complex CDK2/Cyclin E2, expressed from insect cell, was purchased from ProQinase
Summary of the method: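 Recombinant insect-cell CDK2/Cyclin E2 (1 nM) phosphorylated ULight-4E-BP1 (50 nM) with 1 mM ATP in HEPES pH 7.4 buffer, after 20 min compound preincubation; MgCl2 (10 mM) started the 45 min reaction at 37° C. Europium anti-phospho-4E-BP1 TR-FRET read; 9-dose IC50 by 4-parameter fit.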

OVCAR3 p-RB = assay: pRB ICW Assay in OVCAR3 Cells; type: cell-based; conditions: Homo sapiens, OVCAR-3, incubated with compound for 2 hours
Summary of the method: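 OVCAR3 cells were treated 2 h at 37° C. with a 9-point half-log compound series, duplicate wells, with 10 μM reference compound as maximum inhibition. Fixed, permeabilized cells were stained with anti-phospho-RB plus DRAQ5 and imaged at 700/800 nm (In-Cell Western).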

CDK4/Cyclin D1 = target: T2, CDK4/Cyclin D1 (Homo sapiens, UniProt P11802); assay: CDK4/CyclinD1 Enzymatic Activity Assay (TR-FRET); type: biochemical; conditions: ATP 2 mM final, read-out: CDK4_D1 IC50
T2 construct: purchased ProQinase; host or cells: insect cell
Method: CDK4/CyclinD1 Enzymatic Activity Assay
The inhibitory activity of compounds was evaluated in vitro using TR-FRET assay with white 384-well low volume microplate (Greiner Bio-One). CDK4/Cyclin D1 catalyzed phosphorylation of peptide in the presence and absence of compounds was measured and used in IC50 determination. Recombinant protein complex CDK4/Cyclin D1, expressed from insect cell, was purchased from ProQinase. Testing compounds were dissolved in DMSO at 1 mM and tested in 9-dose IC50 mode. The reaction mixture was prepared by mixing CDK4/CyclinD1 (1 nM final), ULight-4E-BP1 (100 nM final, Perkinelmer, TRF0128-D), and ATP (2 mM final) in assay buffer (20 mM of HEPES pH 7.4, 1 mM of EGTA, 0.05% BSA, 0.005% Tween 20, and 1 mM TCEP). The compound of interest in DMSO was added to each well in 3-fold serial dilution by the dispenser (TECAN D300E) to make a 9.9 μL of reaction mixture. After 20 minutes preincubation at room temperature, 0.1 μL MgCl2 (10 mM final) was added to initiate the reaction. Following a 45-minute incubation at 37° C., the reaction was stopped by addition of 2 μL of quenching buffer consisting of Lance detection buffer (Perkinelmer CR97-100C), LANCE Ultra Europium-anti-P-4E-BP1 (Perkinelmer, TRF0216-D), EDTA, and incubated at room temperature for additional 60 minutes in dark. The reaction signal was measured by Envision multimode plate reader (PerkinElmer, 2102-0010). IC50 values were determined by fitting the data to the standard 4 parameters with Hill Slope using GraphPad Prism software.

T2 sequence (P11802 whole entry): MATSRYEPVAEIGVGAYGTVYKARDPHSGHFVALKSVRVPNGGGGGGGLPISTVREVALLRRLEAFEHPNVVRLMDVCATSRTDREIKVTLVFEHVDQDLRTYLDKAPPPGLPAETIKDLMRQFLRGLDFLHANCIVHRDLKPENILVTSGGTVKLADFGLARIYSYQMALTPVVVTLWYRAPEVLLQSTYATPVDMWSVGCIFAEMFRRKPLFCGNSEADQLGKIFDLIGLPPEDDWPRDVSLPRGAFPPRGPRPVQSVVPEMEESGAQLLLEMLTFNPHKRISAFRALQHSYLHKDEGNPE
T2 sequence (P24385 whole entry partner): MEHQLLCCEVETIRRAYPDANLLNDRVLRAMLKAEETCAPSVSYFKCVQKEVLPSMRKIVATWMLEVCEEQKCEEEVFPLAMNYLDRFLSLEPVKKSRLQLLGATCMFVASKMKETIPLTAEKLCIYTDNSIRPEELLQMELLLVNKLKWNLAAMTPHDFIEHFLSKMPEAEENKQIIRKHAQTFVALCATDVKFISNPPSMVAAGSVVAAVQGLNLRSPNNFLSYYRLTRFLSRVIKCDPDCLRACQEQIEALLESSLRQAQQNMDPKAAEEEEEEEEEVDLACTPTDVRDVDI

| SMILES | IC50 (CDK2/Cyclin E2) [nM] | IC50 (OVCAR3 p-RB) [nM] | IC50 (CDK4/Cyclin D1) [nM] |
| --- | --- | --- | --- |
| Cn1cnc(S(=O)(=O)N2CCC(Nc3ncc(C(F)(F)F)c(-c4ncc(CC(C)(C)O)s4)n3)CC2)c1 [Example 3, 2-Methyl-1-(2-(2-((1-((1-methyl-1H-imidazol-4-yl)sulfonyl)piperidin-4-yl)amino)-5-(trifluoromethyl)pyrimidin-4-yl)thiazol-5-yl)propan-2-ol] | ≤ 100 | ≤ 100 | ≤ 100 |
| Cc1sc(-c2nc(N[C@@H]3CCN(S(=O)(=O)c4cnn(C)c4)C[C@H]3F)ncc2C(F)(F)F)cc1C#N [Example 4, 5-(2-(((3R,4R)-3-fluoro-1-((1-methyl-1H-pyrazol-4-yl)sulfonyl)piperidin-4-yl)amino)-5-(trifluoromethyl)pyrimidin-4-yl)-2-methylthiophene-3-carbonitrile] | ≤ 100 | 100 to 500 | ≤ 100 |
| Cc1sc(-c2nc(N[C@@H]3CCN(S(=O)(=O)c4cn(C)cn4)C[C@H]3F)ncc2C(F)(F)F)cc1C#N [Example 5, 5-(2-(((3R,4R)-3-fluoro-1-((1-methyl-1H-imidazol-4-yl)sulfonyl)piperidin-4-yl)amino)-5-(trifluoromethyl)pyrimidin-4-yl)-2-methylthiophene-3-carbonitrile] | ≤ 100 | 100 to 500 | ≤ 100 |
| CS(=O)(=O)N1CC[C@@H](Nc2ncc(C(F)(F)F)c(-c3cc(C(N)=O)cs3)n2)[C@H](F)C1 [Example 6, 5-(2-(((3R,4R)-3-fluoro-1-(methylsulfonyl)piperidin-4-yl)amino)-5-(trifluoromethyl)pyrimidin-4-yl)thiophene-3-carboxamide] | ≤ 100 | ≤ 100 | ≤ 100 |
| CS(=O)(=O)N1CC[C@H](Nc2ncc(C(F)(F)F)c(-c3cc(C(N)=O)cs3)n2)[C@H](F)C1 [Example 7, 5-(2-(((3R,4S)-3-fluoro-1-(methylsulfonyl)piperidin-4-yl)amino)-5-(trifluoromethyl)pyrimidin-4-yl)thiophene-3-carboxamide] | ≤ 100 | ≤ 100 | ≤ 100 |
| Cc1sc(-c2nc(N[C@@H]3CCN(S(C)(=O)=O)C[C@H]3F)ncc2C(F)(F)F)cc1C(N)=O [Example 8, 5-(2-(((3R,4R)-3-fluoro-1-(methylsulfonyl)piperidin-4-yl)amino)-5-(trifluoromethyl)pyrimidin-4-yl)-2-methylthiophene-3-carboxamide] | ≤ 100 | ≤ 100 | ≤ 100 |
| Cc1sc(-c2nc(N[C@H]3CCN(S(C)(=O)=O)C[C@H]3F)ncc2C(F)(F)F)cc1C(N)=O [Example 9, 5-(2-(((3R,4S)-3-fluoro-1-(methylsulfonyl)piperidin-4-yl)amino)-5-(trifluoromethyl)pyrimidin-4-yl)-2-methylthiophene-3-carboxamide] | ≤ 100 | ≤ 100 | ≤ 100 |
| C[C@@H]1CN(S(C)(=O)=O)CC[C@@H]1Nc1ncc(C(F)(F)F)c(-c2cc(C(N)=O)cs2)n1 [Example 10, 5-(2-(((3R,4S)-3-methyl-1-(methylsulfonyl)piperidin-4-yl)amino)-5-(trifluoromethyl)pyrimidin-4-yl)thiophene-3-carboxamide] | ≤ 100 | 100 to 500 | 100 to 500 |
| Cn1cc(S(=O)(=O)N2CC[C@H](Nc3ncc(C(F)(F)F)c(-c4cc(C(N)=O)cs4)n3)[C@H](F)C2)cn1 [Example 11, 5-(2-(((3R,4S)-3-fluoro-1-((1-methyl-1H-pyrazol-4-yl)sulfonyl)piperidin-4-yl)amino)-5-(trifluoromethyl)pyrimidin-4-yl)thiophene-3-carboxamide] | ≤ 100 | ≤ 100 | ≤ 100 |
| Cn1cnc(S(=O)(=O)N2CC[C@H](Nc3ncc(C(F)(F)F)c(-c4cc(C(N)=O)cs4)n3)[C@H](F)C2)c1 [Example 12, 5-(2-(((3R,4S)-3-fluoro-1-((1-methyl-1H-imidazol-4-yl)sulfonyl)piperidin-4-yl)amino)-5-(trifluoromethyl)pyrimidin-4-yl)thiophene-3-carboxamide] | ≤ 100 | ≤ 100 | ≤ 100 |
| Cn1cc(S(=O)(=O)N2CC[C@@H](Nc3ncc(C(F)(F)F)c(-c4cc(C(N)=O)cs4)n3)[C@H](F)C2)cn1 [Example 13, 5-(2-(((3R,4R)-3-fluoro-1-((1-methyl-1H-pyrazol-4-yl)sulfonyl)piperidin-4-yl)amino)-5-(trifluoromethyl)pyrimidin-4-yl)thiophene-3-carboxamide] | ≤ 100 | ≤ 100 | ≤ 100 |
| Cn1cnc(S(=O)(=O)N2CC[C@@H](Nc3ncc(C(F)(F)F)c(-c4cc(C(N)=O)cs4)n3)[C@H](F)C2)c1 [Example 14, 5-(2-(((3R,4R)-3-fluoro-1-((1-methyl-1H-imidazol-4-yl)sulfonyl)piperidin-4-yl)amino)-5-(trifluoromethyl)pyrimidin-4-yl)thiophene-3-carboxamide] | ≤ 100 | 100 to 500 | ≤ 100 |
| Cc1sc(-c2nc(N[C@H]3CCN(S(=O)(=O)c4cnn(C)c4)C[C@H]3F)ncc2C(F)(F)F)cc1C(N)=O [Example 15, 5-(2-(((3R,4S)-3-fluoro-1-((1-methyl-1H-pyrazol-4-yl)sulfonyl)piperidin-4-yl)amino)-5-(trifluoromethyl)pyrimidin-4-yl)-2-methylthiophene-3-carboxamide] | ≤ 100 | ≤ 100 | ≤ 100 |
| Cc1sc(-c2nc(N[C@H]3CCN(S(=O)(=O)c4cn(C)cn4)C[C@H]3F)ncc2C(F)(F)F)cc1C(N)=O [Example 16, 5-(2-(((3R,4S)-3-fluoro-1-((1-methyl-1H-imidazol-4-yl)sulfonyl)piperidin-4-yl)amino)-5-(trifluoromethyl)pyrimidin-4-yl)-2-methylthiophene-3-carboxamide] | ≤ 100 | ≤ 100 | ≤ 100 |
| Cc1sc(-c2nc(N[C@@H]3CCN(S(=O)(=O)c4cnn(C)c4)C[C@H]3F)ncc2C(F)(F)F)cc1C(N)=O [Example 17, 5-(2-(((3R,4R)-3-fluoro-1-((1-methyl-1H-pyrazol-4-yl)sulfonyl)piperidin-4-yl)amino)-5-(trifluoromethyl)pyrimidin-4-yl)-2-methylthiophene-3-carboxamide] | ≤ 100 | ≤ 100 | ≤ 100 |
| Cc1sc(-c2nc(N[C@@H]3CCN(S(=O)(=O)c4cn(C)cn4)C[C@H]3F)ncc2C(F)(F)F)cc1C(N)=O [Example 18, 5-(2-(((3R,4R)-3-fluoro-1-((1-methyl-1H-imidazol-4-yl)sulfonyl)piperidin-4-yl)amino)-5-(trifluoromethyl)pyrimidin-4-yl)-2-methylthiophene-3-carboxamide] | ≤ 100 | ≤ 100 | ≤ 100 |
| C[C@@H]1CN(S(=O)(=O)c2cnn(C)c2)CC[C@@H]1Nc1ncc(C(F)(F)F)c(-c2cc(C(N)=O)cs2)n1 [Example 19, 5-(2-(((3R,4S)-3-methyl-1-((1-methyl-1H-pyrazol-4-yl)sulfonyl)piperidin-4-yl)amino)-5-(trifluoromethyl)pyrimidin-4-yl)thiophene-3-carboxamide] | ≤ 100 | ≤ 100 | ≤ 100 |
| C[C@@H]1CN(S(=O)(=O)c2cn(C)cn2)CC[C@@H]1Nc1ncc(C(F)(F)F)c(-c2cc(C(N)=O)cs2)n1 [Example 20, 5-(2-(((3R,4S)-3-methyl-1-((1-methyl-1H-imidazol-4-yl)sulfonyl)piperidin-4-yl)amino)-5-(trifluoromethyl)pyrimidin-4-yl)thiophene-3-carboxamide] | ≤ 100 | 100 to 500 | ≤ 100 |
| C[C@@H]1CN(S(=O)(=O)c2c[nH]cn2)CC[C@@H]1Nc1ncc(C(F)(F)F)c(-c2cc(C(N)=O)cs2)n1 [Example 21, 5-(2-(((3R,4S)-1-((1H-imidazol-4-yl)sulfonyl)-3-methylpiperidin-4-yl)amino)-5-(trifluoromethyl)pyrimidin-4-yl)thiophene-3-carboxamide] | ≤ 100 | 100 to 500 | 100 to 500 |
| C[C@@H]1CN(S(=O)(=O)c2cnc3cccnn23)CC[C@@H]1Nc1ncc(C(F)(F)F)c(-c2cc(C(N)=O)cs2)n1 [Example 22, 5-(2-(((3R,4S)-1-(imidazo[1,2-b]pyridazin-3-ylsulfonyl)-3-methylpiperidin-4-yl)amino)-5-(trifluoromethyl)pyrimidin-4-yl)thiophene-3-carboxamide] | ≤ 100 | ≤ 100 | 100 to 500 |
